In patent US12508243B2, “Compositions and methods for treating cancer and improving epithelial homeostasis” (The Regents of the University of California, priority 2019, dated 2025):
“Also recorded” adds a separate entry of the source.

Tests used:
mouse ABSCs (mABSCs) [1] = assay: EdU proliferation assay in mouse ABSCs, submerged culture; format: cell-based; settings: submerged culture 4 days; for mABSC proliferation (EdU incorporation): 1 μM CHIR + 1 μM inhibitor
Procedure: Mouse and human ABSCs were isolated following a previously published method. Briefly, mouse tracheas were dissected, cleaned, and incubated in 16 U/mL dispase for 30 minutes (1 hour for human) at room temperature. Tracheas were then incubated in 0.5 mg/mL DNase for another 30 minutes (1 hour for human) at room temperature. Epithelium was stripped and incubated in 0.1% Trypsin-EDTA for 30 minutes (1 hour for human) shaking at 37° C. to generate a single cell suspension. Isolated cells were passed through a 40 μm strainer and stained with fluorophore-conjugated antibodies against ITGA6 and TROP2. ITGA6+ TROP2+ cells were obtained via FACS that was completed using the BD FACSAria cell sorter.
In vitro proliferation was studied using the Click-iT EdU incorporation assay kit (Invitrogen C10337) following the company's protocol. Briefly, mouse and human AB SC cultures were treated with 10 μM EdU 6-8 hours prior to commencing IFs. Cells were fixed with […] for 15 minutes followed by permeabilization in 0.5% Triton-X for 20 minutes. EdU cocktail was incubated for 30 minutes in darkness followed by immunocytochemistry.
(§1) To determine whether the pathobiology observed in human patients can be modeled in vitro, mouse ABSCs (mABSCs) were treated with GSK3β inhibitor CHIR99021 (CHIR) under submerged culture conditions for 4 days to activate canonical Wnt signaling (FIG. 2A).

mouse ABSCs (mABSCs) [2] = assay: Air-liquid interface (ALI) differentiation assay with mouse ABSCs; format: cell-based
Procedure: (§2) 24-well 6.5 mm transwells with 0.4 μm pore polyester membrane inserts were coated with 0.2 mg/mL collagen type I dissolved in 60% ethanol and allowed to air dry. ABSCs were seeded at 100,000 cells per well and allowed to grow in the submerged phase of culture for 4-5 days with 500 μl media in the basal chamber and 200 μl media in the apical chamber. ALI cultures were then established and culture with only 500 μl media in the basal chamber, and cultures harvested at varying timepoints for immunofluorescence studies. Media was changed every other day and cultures were maintained at 37° C. and 5% C02. ABSCs were treated with the indicated concentrations of GSK3XV (Sigma 361558), CHIR or WIC1.
Mouse ABSCs were grown in MTEC Plus media and MTEC serum-free media during the submerged and ALI phases of culture, respectively. MTEC base media is DMEM/Ham's F12 50/50 (Corning 15090CV). Table S1 and Table S2 indicate the media components and concentrations for MTEC Plus and MTEC serum-free media, respectively.
Mouse and human ABSCs were fixed in […] for 15 minutes followed by permeabilization with 0.50% Triton-X for 10 minutes. Cells were blocked using serum-free protein block (Dako X090930) for one hour at room temperature and overnight primary antibody incubation. Secondary antibodies were incubated for 1 hour in darkness, washed, and mounted using Vectashield hardest mounting medium with DAPI (Vector Labs H-1500). IF images were obtained using an LSM780 or LSM880 Zeiss confocal microscope and composite images generated using Fiji. […]

BEAS2B cells = assay: Cell Titer Glo toxicity assay in BEAS2B cells; format: cell-based, human; settings: various concentrations
Procedure: (§3) For luciferase reporter assays conducted outside of the high-throughput drug screen, BEAS2B cells were seeded in a 96-well plate at 20,000 cells per well. The following day, cells were with treated DMSO, 5 μM CHIR99021 (CHIR; Tocris 4423), or 5 μM CHIR plus WIC2 (Key Organics GP-0355), Coumarin (Sigma C4261), or WIC1 for 24 hours. Lysis reactions were conducted using BrightGlo (Promega E1910) and incubated for two minutes at room temperature prior to transferring luminescence reactions to white-bottom, white-walled 96-well plates (Costar). Toxicity assays were conducted by adding Cell Titer Glo reagent (Promega) following manufacturer's protocol. Luminescence readings were conducted using the Clariostar plate reader.

[3] = test system: TCF/LEF luciferase reporter; assay: TCF/LEF luciferase reporter assay in transduced BEAS2B cells (CHIR-induced); format: cell-based, human; settings: 10 nM, WIC1, MSAB, LF3, ICG001 compared
Procedure: BEAS2B cells (ATCC CRL-9609) were seeded in a 6-well plate and infected with Cignal lentiviral particles containing a TCF/LEF luciferase reporter (Qiagen CLS-018L). Cells were spin infected at 37° C. for one hour using a multiplicity of infection of 20. Cells were selected with 0.6 μg/mL puromycin to isolate stably expressing clones.
as §3
In light of the finding that Wnt/β-catenin signaling drives ABSC hyperproliferation, a small molecule inhibitors of the pathway that could restore airway homeostasis. A high-throughput drug screen was established to identify compounds capable of reducing TCF/LEF activity measured by a luciferase reporter induced by CHIR treatment in a 384-well format (FIG. 3A). Briefly, white-bottom 384-well plates (Greiner One) were precoated overnight with 0.01 mg/mL fibronectin from human plasma (Sigma F0895), 0.03 mg/mL rat tail collagen type I (Corning 354249), and 0.01 mg/mL BSA (ThermoFisher BP-9706) diluted in 50 uL of Airway Epithelial Cell Growth Medium (PromoCell C21060). Precoat was then aspirated and washed using 100 μL the BioTek EL406. A custom V&P pin tool mounted to a Beckman FX liquid handler was then used to pin […] of 10 mM stock compound. 2,000 BEAS2B cells per well were then seeded using the Multidrop. Cells were therefore treated with 1% DMSO, 5 μM CHIR, or 5 μM CHIR+10 μM pinned compound and incubated for 24 hours at 37° C. and 5% CO2. […] 25 μL BrightGlo (Promega) was subsequently added to each well using the BioTek EL405 and incubated for 2 minutes prior reading luminescence values with the Envision plate reader (FIG. 3B). […] Z′ factor values were used to assess assay quality and was calculated by: Z′=1-3(SD Total+SDBackground)/(MeanTotal−MeanBackground) where SDTotal and MeanTotal are the standard deviation and mean of signal for CHIR-treated wells, and SDBackground and MeanBackground are the standard deviation and mean of signal for DMSO-treated wells. The Z′ factor value was calculated to be 0.82.

human ABSCs = assay: Air-liquid interface (ALI) differentiation assay with human ABSCs; format: cell-based; settings: human ABSCs, treated for 21 days
Procedure: as §2
(§4) Mouse and human ABSCs were fixed in […] for 15 minutes followed by permeabilization with 0.50% Triton-X for 10 minutes. Cells were blocked using serum-free protein block (Dako X090930) for one hour at room temperature and overnight primary antibody incubation. Secondary antibodies were incubated for 1 hour in darkness, washed, and mounted using Vectashield hardest mounting medium with DAPI (Vector Labs H-1500). IF images were obtained using an LSM780 or LSM880 Zeiss confocal microscope and composite images generated using Fiji.
To assess whether WIC1 could reverse Wnt/β-catenin-induced ABSC hyperproliferation, human ABSCs were treated with either DMSO, CHIR, or CHIR+WIC1. […] It was then sought to determine if WIC1 could promote ABSC differentiation to ciliated cells under ALI conditions.

Trp63 = Trp63 expression with CHIR and WIC1 treatment (FIG. 4F); format: cell-based; settings: CHIR treatment
Procedure: (§5) RNA was isolated with the RNeasy Mini Kit (Qiagen 74104) following manufacturer's protocol and quantified using a NanoDrop Spectrophotometer (ThermoFisher). cDNA synthesis was performed using the TaqMan Reverse Transcription Reagents (ThermoFisher) as indicated by the company. qPCR was then performed using the TaqMan PCR Master Mix (Applied Biosystems) on the StepOne-Plus Real Time PCR System.

p-β-catenin^Y489 = assay: Immunofluorescence staining of phosphorylated β-catenin localization in ABSCs; format: cell-based, mouse
Procedure: as §4, §1

TP63 = assay: qRT-PCR of TP63 expression in BEAS2B cells; format: cell-based, human; settings: addition of CHIR
Procedure: as §5

[4] = test system: TCF/LEF luciferase reporter; assay: TCF/LEF (TOPFLASH) luciferase reporter in mABSCs; format: cell-based, mouse; settings: vs DMSO-treated cultures
Procedure: mABSCs were seeded in a 6-well transwell plate and transiently transfected with […] of the TOPFLASH luciferase reporter and […] Renilla Luciferase reporter vector pRL-TK for internal control (Promega). Transfections were conducted using Lipofectamine 2000 Transfection Reagent (ThermoFisher 11668030) following the manufacturer's protocol.
as §1

[5] = mABSCs, ALI, 100 nM inhibitor vs DMSO
[6] = mABSCs, ALI, 1 μM inhibitor vs DMSO
[7] = mABSCs, ALI, GSK3β inhibitor vs DMSO

COC(=O)c1cccc(NS(=O)(=O)c2ccc(C)cc2)c1 [MSAB]
mABSC proliferation (EdU incorporation) (mouse ABSCs (mABSCs) [1]): decreased mABSC proliferation to a similar degree | Proportion of ciliated cells (mouse ABSCs (mABSCs) [2]; [5]): neither 100 nM nor 1 μM MSAB increased differentiation to the ciliated cell fate | Percentage of ciliated cells (mouse ABSCs (mABSCs) [2]; [6]): neither 100 nM nor 1 μM MSAB increased differentiation to the ciliated cell fate | Toxicity by Cell Titer Glo (BEAS2B cells): dose dependent toxicity | TCF/LEF activity, inhibitor comparison [3]: only inhibitor that decreased TCF/LEF activity at 10 nM

Cc1c[nH]c(-c2cnc(NCCNc3ccc(C#N)cn3)nc2-c2ccc(Cl)cc2Cl)n1 [CHIR, CHIR99021]
Differentiation to the ciliated cell fate (human ABSCs): abolished differentiation to the cilated cell fate | Pool of ABSCs (human ABSCs): increased pool for ABSCs | mABSC proliferation (EdU) (mouse ABSCs (mABSCs) [1]; compound alone vs DMSO): statistically significant increase in proliferation; also recorded: statistically significant increased proliferation | Trp63 expression (Trp63): induction of Trp63 expression | Nuclear p-β-catenin^Y489 (p-β-catenin^Y489; compound alone vs DMSO): increase in nuclear p-β-cateninY489; also recorded: increased nuclear p-β-catenin^Y489; also recorded: induced nuclear localization of p-β-catenin^Y489 | Localization of other phosphorylated forms of β-catenin (Y654, S552, S33,S37,T41) (p-β-catenin^Y489; mouse ABSCs, submerged phase of culture): remained primarily cytoplasmic or membranous | TP63 expression (TP63): increase in TP63 expression | Percentage of ciliated cells (mouse ABSCs (mABSCs) [2]; [7]): significant reduction in the percentage of ciliated cells | Pool of K5+ mABSCs (mouse ABSCs (mABSCs) [2]; [7]): increased pool of K5+ mABSCs | ABSC morphology (mouse ABSCs (mABSCs) [2]; mABSCs, ALI, vs DMSO): clumping morphology reminiscent of PMLs; also recorded: dose-dependent heaping morphology that resembles the PMLs

O=C1[C@H](Cc2ccc(O)cc2)N2C(=O)CCN(C(=O)NCc3ccccc3)[C@H]2CN1Cc1cccc2ccccc12 [ICG001]
mABSC proliferation (EdU incorporation) (mouse ABSCs (mABSCs) [1]): decreased mABSC proliferation to a similar degree | Proportion of ciliated cells (mouse ABSCs (mABSCs) [2]; [5]): induced a greater proportion of ciliated cells | Percentage of ciliated cells (mouse ABSCs (mABSCs) [2]; [6]): no effect on the percentage of ciliated cells | Toxicity by Cell Titer Glo (BEAS2B cells): dose dependent toxicity

B1: Wnt3A: recombinant Wnt3A protein used to raise Wnt signaling (protein, UniProt P56704 19-352, looked up)
Protein Wnt-3a: SYPIWWSLAVGPQYSSLGSQPILCASIPGLVPKQLRFCRNYVEIMPSVAEGIKIGIQECQHQFRGRRWNCTTVHDSLAIFGPVLDKATRESAFVHAIASAGVAFAVTRSCAEGTAAICGCSSRHQGSPGKGWKWGGCSEDIEFGGMVSREFADARENRPDARSAMNRHNNEAGRQAIASHMHLKCKCHGLSGSCEVKTCWWSQPDFRAIGDFLKDKYDSASEMVVEKHRESRGWVETLRPRYTYFKVPTERDLVYYEASPNFCEPNPETGSFGTRDRTCNVSSHGIDGCDLLCCGRGHNARAERRREKCRCVFHWCCYVSCQECTRVYDVHTCK
TCF/LEF activity measured by a luciferase reporter [4]: increased TCF/LEF activity | Proportion of ciliated cells (mouse ABSCs (mABSCs) [2]; ALI conditions, 100 ng/mL): increased the proportion of ciliated cells | K5+ mABSCs (mouse ABSCs (mABSCs) [2]; ALI conditions, 500 ng/mL): K5+ mABSC expansion | Proportion of ciliated cells (mouse ABSCs (mABSCs) [2]; ALI conditions, 500 ng/mL): produced fewer ciliated cells
